Test results: patent US4362663A, “Maytansinoid compound” (Takeda Chemical Industries, Ltd., priority 1979, dated 1982)
≈ marks a conversion by molar mass, not a printed value.

How the values were obtained:
Bacillus cereus = test: Antimicrobial activity, paper disk method on trypticase-soy-agar; format: cell-based; settings: paper disk diam. 8 mm, 0.02 ml of a 300 μg/ml solution
Method: (§1) Using trypticase-soy-agar (Baltimore Biologicals, U.S.A.) as a test medium, the minimal inhibitory concentration of each compound against the following microorganisms was determined by the paper disk method. Thus, on plate media containing the following organisms, growth inhibition was investigated using paper disks (Toyo Roshi Corp., Japan thin-type, diam. 8 mm) imbibed with 0.02 ml of a 300 μg/ml solution of PND-1, PND-2, PND-3 or PND-4.
(§2) Escherichia coli, Proteus vulgaris, Proteus mirabilis, Pseudomonas aeruginosa, Staphylococcus aureus, Bacillus subtilis, Bacillus cereus, Klebsiella pneumoniae, Serratia marcescens, Mycobacterium avium.

Bacillus subtilis = test: as above; format: cell-based; settings: paper disk diam. 8 mm, 0.02 ml of a 300 μg/ml solution
Method: as §1, §2

Escherichia coli = test: as above; format: cell-based; settings: paper disk diam. 8 mm, 0.02 ml of a 300 μg/ml solution
Method: as §1, §2

Klebsiella pneumoniae = test: as above; format: cell-based; settings: paper disk diam. 8 mm, 0.02 ml of a 300 μg/ml solution
Method: as §1, §2

Mycobacterium avium = test: as above; format: cell-based; settings: paper disk diam. 8 mm, 0.02 ml of a 300 μg/ml solution
Method: as §1, §2

Proteus mirabilis = test: as above; format: cell-based; settings: paper disk diam. 8 mm, 0.02 ml of a 300 μg/ml solution
Method: as §1, §2

Proteus vulgaris = test: as above; format: cell-based; settings: paper disk diam. 8 mm, 0.02 ml of a 300 μg/ml solution
Method: as §1, §2

Pseudomonas aeruginosa = test: as above; format: cell-based; settings: paper disk diam. 8 mm, 0.02 ml of a 300 μg/ml solution
Method: as §1, §2

Serratia marcescens = test: as above; format: cell-based; settings: paper disk diam. 8 mm, 0.02 ml of a 300 μg/ml solution
Method: as §1, §2

Staphylococcus aureus = test: as above; format: cell-based; settings: paper disk diam. 8 mm, 0.02 ml of a 300 μg/ml solution
Method: as §1, §2

[1] = tested on: Hamigera avellanea IFO 7721; test: Microbiological assay, paper disk method; format: cell-based; settings: IFO7721, paper disk diam. 8 mm, 0.02 ml of a 100 μg/ml solution, pH 7.0 medium, read-out: diameter of zone of inhibition
Method: On the other hand, on a plate assay medium [disodium phosphate 3.5 g, monopotassium phosphate 0.5 g, yeast extract (Difco, U.S.A.) 5 g, glucose 10 g, agar 15 g, distilled water 1000 ml, pH 7.0], a microbiological assay was carried out by the paper disk method using Hamigera avellanea IFO 7721 as a test organism. On said plate medium inoculated with said organism, growth inhibition was examined using a paper disk (Toyo Roshi Corp., Japan, Thin type, diam.8 mm) imbibed with 0.02 ml of a 100 μg/ml solution of PND-1, PND-2, PND-3 or PND-4. The diameters of zones of inhibition were 28 mm for PND-1, 30 mm for PND-2, 34 mm for PND-3 and 36 mm for PND-4.

[2] = tested on: Tetrahymena pyriformis W strain; test: Minimal inhibitory concentration, serial broth dilution method; format: cell-based; settings: 28° C., 44 to 48 hours
Method: On the other hand, Tetrahymena pyriformis W strain, as a test organism, was cultivated on an assay medium [Proteose-peptone (Difco) 20 g, yeast extract 1 g, glucose 2 g, distilled water 1000 ml, 1 M phosphate buffer (pH 7.0) 10 ml] at 28° C. for 44 to 48 hours and the minimal inhibitory concentrations of the antibiotics against said organisms were determined by the serial broth dilution method.

P388 tumor cell = test: Antitumor activity in P388 tumor-bearing mice; format: in vivo; settings: P388 1×10^6 cell/mouse, intraperitoneal
From the text: The therapeutic action of PND-1, PND-2, PND-3 and PND-4 against P388 tumor cell (1×10^6 cell/mouse, intraperitoneal) was investigated.

mice = test: Acute toxicity test in mice; format: in vivo; settings: intraperitoneal
From the text: In an acute toxicity test performed in mice, PND-1, PND-2, PND-3 and PND-4 were given to animals by the intraperitoneal route.

Solubility = format: physicochemical

With `CCC(=O)O[C@H]1CC(=O)Nc2cc(cc(OC)c2Cl)C/C(C)=C/C=C/[C@@H](OC)[C@@]2(O)C[C@H](OC(=O)N2)[C@@H](C)[C@@H]2O[C@@]12C` [PND-2] the growth inhibition (Bacillus cereus) was “did not exhibit activity”, the growth inhibition (Bacillus subtilis) was “did not exhibit activity” and the growth inhibition (Escherichia coli) was “did not exhibit activity”. The growth inhibition (Klebsiella pneumoniae) was “did not exhibit activity”, the growth inhibition (Mycobacterium avium) was “did not exhibit activity” and the growth inhibition (Proteus mirabilis) was “did not exhibit activity”. The growth inhibition (Proteus vulgaris) was “did not exhibit activity”, the growth inhibition (Pseudomonas aeruginosa) was “did not exhibit activity” and the growth inhibition (Serratia marcescens) was “did not exhibit activity”. The growth inhibition (Staphylococcus aureus) was “did not exhibit activity”, the zone of inhibition at 100 µg/mL [1] was 30 mm and the MIC [2] was 4 µg/mL (≈ 6.59 µM). For the same compound, the “life span of tumor-bearing mouse” value (P388 tumor cell) was “prolong the life span of a tumor-bearing mouse”, the LD0 (mice) was 0.313 mg/kg and the LD100 (mice) was 2.5 mg/kg. The “Solubility in chloroform, ethyl acetate, acetone, ethanol, methanol, pyridine, tetrahydrofuran, dimethylsulfoxydo” value (“Solubility in chloroform, ethyl acetate” for short) (Solubility) was “soluble” and the “Solubility in petroleum ether, n-hexane, water” value (from here on “Solubility in petroleum ether”) (Solubility) was “insoluble”.

For `COc1cc2cc(c1Cl)NC(=O)C[C@H](OC(C)=O)[C@]1(C)O[C@H]1[C@H](C)[C@@H]1C[C@@](O)(NC(=O)O1)[C@H](OC)/C=C/C=C(\C)C2` [PND-1], the growth inhibition (Bacillus cereus) was “did not exhibit activity”, the growth inhibition (Bacillus subtilis) was “did not exhibit activity” and the growth inhibition (Escherichia coli) was “did not exhibit activity”. For the same compound, the growth inhibition (Klebsiella pneumoniae) was “did not exhibit activity”, the growth inhibition (Mycobacterium avium) was “did not exhibit activity” and the growth inhibition (Proteus mirabilis) was “did not exhibit activity”. The growth inhibition (Proteus vulgaris) was “did not exhibit activity”, the growth inhibition (Pseudomonas aeruginosa) was “did not exhibit activity” and the growth inhibition (Serratia marcescens) was “did not exhibit activity”. For the same compound, the growth inhibition (Staphylococcus aureus) was “did not exhibit activity”, the zone of inhibition at 100 µg/mL [1] was 28 mm and the MIC [2] was 8 µg/mL (≈ 13.5 µM). The “life span of tumor-bearing mouse” value (P388 tumor cell) was “prolong the life span of a tumor-bearing mouse”, the LD0 (mice) was 0.313 mg/kg and the LD100 (mice) was 2.5 mg/kg. For the same compound, the “Solubility in chloroform, ethyl acetate” value (Solubility) was “soluble” and the “Solubility in petroleum ether” value (Solubility) was “insoluble”.

For `COc1cc2cc(c1Cl)NC(=O)C[C@H](OC(=O)C(C)C)[C@]1(C)O[C@H]1[C@H](C)[C@@H]1C[C@@](O)(NC(=O)O1)[C@H](OC)/C=C/C=C(\C)C2` [PND-3], the growth inhibition (Bacillus cereus) was “did not exhibit activity”, the growth inhibition (Bacillus subtilis) was “did not exhibit activity” and the growth inhibition (Escherichia coli) was “did not exhibit activity”. The growth inhibition (Klebsiella pneumoniae) was “did not exhibit activity”, the growth inhibition (Mycobacterium avium) was “did not exhibit activity” and the growth inhibition (Proteus mirabilis) was “did not exhibit activity”. The growth inhibition (Proteus vulgaris) was “did not exhibit activity”, the growth inhibition (Pseudomonas aeruginosa) was “did not exhibit activity” and the growth inhibition (Serratia marcescens) was “did not exhibit activity”. For the same compound, the growth inhibition (Staphylococcus aureus) was “did not exhibit activity”, the zone of inhibition at 100 µg/mL [1] was 34 mm and the MIC [2] was 2 µg/mL (≈ 3.22 µM). The “life span of tumor-bearing mouse” value (P388 tumor cell) was “prolong the life span of a tumor-bearing mouse”, the LD0 (mice) was 0.313 mg/kg and the LD100 (mice) was 2.5 mg/kg. For the same compound, the “Solubility in chloroform, ethyl acetate” value (Solubility) was “soluble” and the “Solubility in petroleum ether” value (Solubility) was “insoluble”.

For `COc1cc2cc(c1Cl)NC(=O)C[C@H](O)[C@]1(C)O[C@H]1[C@H](C)[C@@H]1C[C@@](O)(NC(=O)O1)[C@H](OC)/C=C/C=C(\C)C2` [PND-0], the “Solubility in chloroform, ethyl acetate” value (Solubility) was “soluble” and the “Solubility in petroleum ether” value (Solubility) was “insoluble”.

In the case of `COc1cc2cc(c1Cl)NC(=O)C[C@H](OC(=O)CC(C)C)[C@]1(C)O[C@H]1[C@H](C)[C@@H]1C[C@@](O)(NC(=O)O1)[C@H](OC)/C=C/C=C(\C)C2` [PND-4], the growth inhibition (Bacillus cereus) is reported as “did not exhibit activity”, the growth inhibition (Bacillus subtilis) is reported as “did not exhibit activity” and the growth inhibition (Escherichia coli) is reported as “did not exhibit activity”. For the same compound, the growth inhibition (Klebsiella pneumoniae) was “did not exhibit activity”, the growth inhibition (Mycobacterium avium) was “did not exhibit activity” and the growth inhibition (Proteus mirabilis) was “did not exhibit activity”. The growth inhibition (Proteus vulgaris) was “did not exhibit activity”, the growth inhibition (Pseudomonas aeruginosa) was “did not exhibit activity” and the growth inhibition (Serratia marcescens) was “did not exhibit activity”. For the same compound, the growth inhibition (Staphylococcus aureus) was “did not exhibit activity”, the zone of inhibition at 100 µg/mL [1] was 36 mm and the MIC [2] was 1 µg/mL (≈ 1.57 µM). For the same compound, the “life span of tumor-bearing mouse” value (P388 tumor cell) was “prolong the life span of a tumor-bearing mouse”, the LD0 (mice) was 0.313 mg/kg and the LD100 (mice) was 2.5 mg/kg. The “Solubility in chloroform, ethyl acetate” value (Solubility) was “soluble” and the “Solubility in petroleum ether” value (Solubility) was “insoluble”.
